US20230285570A1, “THERAPEUTICALLY USEFUL CURE-PRO MOLECULES FOR E3 LIGASE MEDIATED DEGRADATION OF PROTEINS, AND METHODS OF MAKING AND USING THEM” (CORNELL UNIVERSITY, priority 2020, published 2023)
“Also recorded” adds a separate entry of the source.

What was measured:
c-MYC [1] = target: T1, c-MYC (Homo sapiens, UniProt P01106); experiment: Summary of C-MYC degradation by CURE-PRO pairs, estimated from Western Blot or WES; assay type: cell-based; set-up: endogenous in cells; host or cells: HT29; conditions: for Degradation of C-MYC, combination with MDM2 ligand 8310: Table 11, aromatic 1,2-diol MYC ligand + 8310; for Degradation of C-MYC, combination with MDM2 ligand 8312: Table 11, aromatic 1,2-diol MYC ligand + 8312; for Degradation of C-MYC, combination with CRBN ligand 8046: Table 7, aryl-boronic acid MYC ligand + 8046; for Degradation of C-MYC, combination with CRBN ligand 8047: Table 7, aryl-boronic acid MYC ligand + 8047; for Degradation of C-MYC, combination with CRBN ligand 8048: Table 10, aromatic 1,2-diol MYC ligand + 8048; for Degradation of C-MYC, combination with CRBN ligand 8049: Table 10, aromatic 1,2-diol MYC ligand + 8049; for Degradation of C-MYC, combination with VHL ligand 8297: Table 12, aromatic 1,2-diol MYC ligand + 8297; for Degradation of C-MYC, combination with VHL ligand 8298: Table 12, aromatic 1,2-diol MYC ligand + 8298
Experimental: (§1) Namalwa, Ramosm HeLa, MCF7, or HT29 HCT116 cells (2.5-3×10^6) were treated for 24 hours with the indicated compounds solubilized in DMSO. The cells were washed in ice-cold PBS and were then lysed in RIPA lysis buffer (150 mM NaCl, 5 mM EDTA, 1% NP-40, 0.5% sodium deoxycholate, 0.1% SDS, 50 mM Tris, pH 8.0.) with Roche protease inhibitor complete cocktail and phosphatase inhibitors (10 mM sodium fluoride, 10 mM sodium pyrophosphate, 1 mM sodium orthovanadate and 20 mM β-glycerophosphate). The total protein concentrations were determined by Bradford Protein Assay (Pierce) and 10-20 μg of protein was loaded onto 4-15% Tris-Glycine gradient gels (Biorad). After standard gel electrophoresis, the separated proteins were transferred to PVDF membrane by wet transfer. The immunoblots were then blocked for 1 hour in 5% skim milk in TBST or 5% BSA in TBST, according to manufacturer's instructions, before an overnight incubation at 4° C. with indicated antibodies and membranes. Membranes were then incubated with the appropriate horseradish peroxidase-conjugated secondary antibodies (1:5,000 dilution) for 1 h at room temperature and the bands were visualized using the Clarity Max Western ECL Substrate (Biorad) and the ChemiDoc Imaging System (Biorad). Signal was detected with ECL Western Blotting Substrate (Pierce) and X-ray film processed with a Konica SRX-101 X-ray film processor or captured by Bio-Rad's Chemidoc Imaging system.
WES Simple analysis was performed on WES system (ProteinSimple-Biotechne) according to the manufacturer's instructions. Total protein concentrations of cell lysates were determined by the Pierce BCA kit (Thermo Fisher). 3 μL of 0.3 μg/μL of the protein lysate was loaded onto a 12- to 230-kDa WES assay plate (ProteinSimple) where 300 nL sample was withdrawn through a capillary, subjected to electrophoretic separation of proteins by size, and followed by the simultaneous, HRP-based detection of proteins using the Anti-Rabbit Detection Module (Proteinsimple: #DM-001). The electropherograms were checked then the automatic peak detection was manually corrected if it was required.
A black check mark indicates efficacy of 30% to 70% or higher protein degradation.

c-MYC [2] = target: T1, c-MYC; experiment: CURE-PRO-mediated c-MYC degradation in HT29 cells, Western blot; assay type: cell-based; set-up: endogenous in cells; host or cells: HT29
Experimental: as §1
HT29 cells (2.5×10^6) were treated for 24 h with the compounds solubilized in DMSO. Compounds were added at 10 nM-10 μM each, as indicated in the description of the figures. Standardized protein samples were electrophoresed and imaged as described in the immunoblotting section above. c-MYC monomers (10058-F4 derivatives comprising catechol linkers), and CRBN ligands, 8048 and 8049 (pomalidomide derivatives comprising boronic acid linkers) combined in a 1:1 ratio.
HT29 cells (2.5×10^6) were treated for 24 h with the compounds solubilized in DMSO. Compounds were added at 100 nM-10 μM each.
(§2) HT29 cells (2.5×10^6) were treated for 24 h with the compounds solubilized in DMSO. Compounds were added at 100 nM-10 μM each. Standardized protein samples were electrophoresed and imaged as described in the immunoblotting section above. c-MYC monomer, MYC-E1, (a 10058-F4 derivative comprising boronic acid linkers), and CRBN ligands, 8046, 8047 and 8066 (pomalidomide derivatives comprising diol linkers) combined in a 1:1 ratio.
as §2, with “monomers, MYC-E6 (FIG. 90), MYC-E10 (FIG. 91), and MYC-E16 (FIG. 92) (10074-G5 derivatives” for “monomer, MYC-E1, (a 10058-F4 derivative”
(§3) HT29 cells (2.5×10^6) were treated for 24 h with the compounds solubilized in DMSO. Compounds were added at 10 nM-10 μM each. Standardized protein samples were electrophoresed and imaged as described in the immunoblotting section above. c-MYC monomer, MYC-N16 (FIG. 93) (10074-G5 derivatives comprising diol linkers), and VHL ligands, 8297 and 8298 (VH-298 derivatives comprising boronic acid linkers) were combined in a 1:1 ratio.
as §3, with “monomers, MYC-E7” for “monomer, MYC-N16”, “96), MYC-E10 (FIG. 97), and MYC-E17 (FIG. 98),” for “93)”, “boronic acid” for “diol”, “diol” for “boronic acid”

[3] = 1:1 with CRBN ligand 8046, HT29, 24 h, 100 nM-10 μM each
[4] = 1:1 with CRBN ligand 8047, HT29, 24 h, 100 nM-10 μM each
[5] = 1:1 with CRBN ligand 8066, HT29, 24 h, 100 nM-10 μM each
[6] = 1:1 with VHL ligand 8298, HT29, 24 h, 10 nM-10 μM each
[7] = 1:1 with CRBN ligand 8048, HT29, 24 h, 10 nM-10 μM each
[8] = c-MYC monomer alone, HT29, 24 h, 10 nM-10 μM

T1 sequence (P01106 whole entry): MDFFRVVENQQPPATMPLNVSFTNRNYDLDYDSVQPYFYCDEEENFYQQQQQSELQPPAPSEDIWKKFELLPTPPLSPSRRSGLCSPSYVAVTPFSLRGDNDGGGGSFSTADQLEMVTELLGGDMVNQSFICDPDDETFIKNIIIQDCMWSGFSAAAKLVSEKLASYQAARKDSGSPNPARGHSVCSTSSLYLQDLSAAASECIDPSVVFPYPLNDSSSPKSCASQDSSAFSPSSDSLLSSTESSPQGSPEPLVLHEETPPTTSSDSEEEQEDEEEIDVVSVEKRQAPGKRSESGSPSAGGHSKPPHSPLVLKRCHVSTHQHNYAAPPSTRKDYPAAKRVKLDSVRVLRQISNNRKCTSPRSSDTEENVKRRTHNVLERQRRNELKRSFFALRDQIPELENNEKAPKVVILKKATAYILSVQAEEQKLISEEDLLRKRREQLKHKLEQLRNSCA

O=C(NCc1cccc(O)c1O)c1ccc(Nc2ccc([N+](=O)[O-])c3nonc23)cc1 [MYC- N18]
Degradation of C-MYC, combination with MDM2 ligand 8310 (c-MYC [1]): √ (A black check mark indicates efficacy of 30% to 70% or higher protein degradation)

O=C(NCCNC(=O)c1ccccc1Nc1ccc([N+](=O)[O-])c2nonc12)c1ccc(O)c(O)c1 [MYC- N21]
Degradation of C-MYC, combination with MDM2 ligand 8310 (c-MYC [1]): √ (A black check mark indicates efficacy of 30% to 70% or higher protein degradation)

O=C(NCCNC(=O)c1cccc(O)c1O)c1ccccc1Nc1ccc([N+](=O)[O-])c2nonc12 [MYC- N22]
Degradation of C-MYC, combination with MDM2 ligand 8310 (c-MYC [1]): √ (A black check mark indicates efficacy of 30% to 70% or higher protein degradation) | Degradation of C-MYC, combination with MDM2 ligand 8312 (c-MYC [1]): √ (A black check mark indicates efficacy of 30% to 70% or higher protein degradation)

CCc1ccc(/C=C2\SC(=O)N(Cc3cccc(B(O)O)c3)C2=O)cc1 [MYC-E1]
Degradation of C-MYC, combination with CRBN ligand 8046 (c-MYC [1]): √ (A black check mark indicates efficacy of 30% to 70% or higher protein degradation) | Degradation of C-MYC, combination with CRBN ligand 8066 (c-MYC [1]; Table 7, aryl-boronic acid MYC ligand + 8066): √ (A black check mark indicates efficacy of 30% to 70% or higher protein degradation) | c-MYC degradation (c-MYC [2]; [3]): Some degradation is seen; also recorded: causes degradation of c-MYC | c-MYC degradation (c-MYC [2]; [4]): Some degradation is seen; also recorded: no degradation was observed | c-MYC degradation (c-MYC [2]; [5]): no degradation was observed

O=[N+]([O-])c1ccc(Nc2ccccc2-c2ccc(B(O)O)cc2)c2nonc12 [MYC-E6]
Degradation of C-MYC, combination with CRBN ligand 8046 (c-MYC [1]): √ (A black check mark indicates efficacy of 30% to 70% or higher protein degradation) | Degradation of C-MYC, combination with CRBN ligand 8047 (c-MYC [1]): √ (A black check mark indicates efficacy of 30% to 70% or higher protein degradation) | c-MYC degradation (c-MYC [2]; [3]): no degradation was observed | c-MYC degradation (c-MYC [2]; [4]): caused degradation of c-MYC | c-MYC degradation (c-MYC [2]; [5]): no degradation was observed

O=C(NCc1cccc(B(O)O)c1)c1ccc(Nc2ccc([N+](=O)[O-])c3nonc23)cc1 [MYC-E10]
Degradation of C-MYC, combination with CRBN ligand 8046 (c-MYC [1]): √ (A black check mark indicates efficacy of 30% to 70% or higher protein degradation) | c-MYC degradation (c-MYC [2]; [3]): caused c-MYC degradation | c-MYC degradation (c-MYC [2]; [6]): caused degradation of c-MYC | c-MYC degradation (c-MYC [2]; 1:1 with VHL ligand 8305, HT29, 24 h, 10 nM-10 μM each): caused loss of c-MYC protein

Cc1ccc(CNC(=O)c2ccccc2Nc2ccc([N+](=O)[O-])c3nonc23)cc1B(O)O [MYC-E16]
Degradation of C-MYC, combination with CRBN ligand 8047 (c-MYC [1]): √ (A black check mark indicates efficacy of 30% to 70% or higher protein degradation) | c-MYC degradation (c-MYC [2]; [4]): Some degradation is seen; also recorded: caused c-MYC degradation

O=C(NCc1ccc(Cl)c(B(O)O)c1)c1ccccc1Nc1ccc([N+](=O)[O-])c2nonc12 [MYC-E18]
Degradation of C-MYC, combination with CRBN ligand 8046 (c-MYC [1]): √ (A black check mark indicates efficacy of 30% to 70% or higher protein degradation)

CCc1ccc(/C=C2\SC(=O)N(CCc3cccc(O)c3O)C2=O)cc1 [MYC-N4]
Degradation of C-MYC, combination with CRBN ligand 8048 (c-MYC [1]): √ (A black check mark indicates efficacy of 30% to 70% or higher protein degradation) | c-MYC degradation (c-MYC [2]; [7]): caused c-MYC degradation | c-MYC degradation (c-MYC [2]; [8]): there is no degradation of c-MYC

CCc1ccc(/C=C2\SC(=O)N(CCNC(=O)c3ccc(O)c(O)c3)C2=O)cc1 [MYC-N7]
Degradation of C-MYC, combination with CRBN ligand 8049 (c-MYC [1]): √ (A black check mark indicates efficacy of 30% to 70% or higher protein degradation) | c-MYC degradation (c-MYC [2]; [7]): cause c-MYC protein degradation; also recorded: caused degradation of c-MYC | c-MYC degradation (c-MYC [2]; 1:1 with CRBN ligand 8049, HT29, 24 h, 10 nM-10 μM each): cause c-MYC protein degradation; also recorded: caused degradation of c-MYC | c-MYC degradation (c-MYC [2]; [8]): there is no degradation of c-MYC

CCc1ccc(/C=C2\SC(=O)N(CCNC(=O)c3cccc(O)c3O)C2=O)cc1 [MYC-N08]
Degradation of C-MYC, combination with VHL ligand 8297 (c-MYC [1]): √ (A black check mark indicates efficacy of 30% to 70% or higher protein degradation) | Degradation of C-MYC, combination with VHL ligand 8298 (c-MYC [1]): √ (A black check mark indicates efficacy of 30% to 70% or higher protein degradation)

O=[N+]([O-])c1ccc(Nc2cccc(O)c2O)c2nonc12 [MYC-N11]
Degradation of C-MYC, combination with CRBN ligand 8048 (c-MYC [1]): √ (A black check mark indicates efficacy of 30% to 70% or higher protein degradation)

O=C(NCc1ccc(O)c(O)c1)c1ccccc1Nc1ccc([N+](=O)[O-])c2nonc12 [MYC-N15]
Degradation of C-MYC, combination with CRBN ligand 8048 (c-MYC [1]): √ (A black check mark indicates efficacy of 30% to 70% or higher protein degradation) | Degradation of C-MYC, combination with CRBN ligand 8049 (c-MYC [1]): √ (A black check mark indicates efficacy of 30% to 70% or higher protein degradation)

O=C(NCc1cccc(O)c1O)c1ccccc1Nc1ccc([N+](=O)[O-])c2nonc12 [MYC-N16]
Degradation of C-MYC, combination with CRBN ligand 8048 (c-MYC [1]): √ (A black check mark indicates efficacy of 30% to 70% or higher protein degradation) | Degradation of C-MYC, combination with MDM2 ligand 8312 (c-MYC [1]): √ (A black check mark indicates efficacy of 30% to 70% or higher protein degradation) | Degradation of C-MYC, combination with VHL ligand 8297 (c-MYC [1]): √ (A black check mark indicates efficacy of 30% to 70% or higher protein degradation) | Degradation of C-MYC, combination with VHL ligand 8298 (c-MYC [1]): √ (A black check mark indicates efficacy of 30% to 70% or higher protein degradation) | c-MYC degradation (c-MYC [2]; [7]): caused c-MYC degradation | c-MYC degradation (c-MYC [2]; 1:1 with VHL ligand 8297, HT29, 24 h, 10 nM-10 μM each): caused degradation of c-MYC | c-MYC degradation (c-MYC [2]; [6]): caused degradation of c-MYC | c-MYC degradation (c-MYC [2]; [8]): there is no degradation of c-MYC; also recorded: no loss of c-MYC protein was observed

O=C(NCc1ccc(O)c(O)c1)c1ccc(Nc2ccc([N+](=O)[O-])c3nonc23)cc1 [MYC-N17]
Degradation of C-MYC, combination with VHL ligand 8298 (c-MYC [1]): √ (A black check mark indicates efficacy of 30% to 70% or higher protein degradation)

O=C(NCCN1C(=O)C/C(=C\c2ccc(F)cc2)C1=O)[C@H]1C[C@@H]2C[C@H]1[C@@H](O)[C@H]2O [MYC-N30]
Degradation of C-MYC, combination with CRBN ligand 8048 (c-MYC [1]): √ (A black check mark indicates efficacy of 30% to 70% or higher protein degradation) | Degradation of C-MYC, combination with CRBN ligand 8049 (c-MYC [1]): √ (A black check mark indicates efficacy of 30% to 70% or higher protein degradation)
